Where two headings read alike, the source gives them in different places.
Legend:
BV-2 cells = test: Cell viability (MTT analysis) of beta-amyloid treated BV-2 cells; format: cell-based; conditions: Mus musculus, BV-2 cells, average of three experiments
Protocol: Beta-amyloid (Aβ25-35, Sigma Chemical Co., St. Louis, Mo., USA) was diluted with aseptic desalted water and preservative solution (1 mM, GIBCO), and kept in aliquots at −70° C. To the treatment of beta-amyloid, beta-amyloid preservative solution was diluted to desired concentrations in a treatment medium (DMEM, GIBCO). The reagents were newly provided as a preservative solution (10 mM) under DMSO (dimethylsulfoxide), and diluted in treatment medium to desired concentrations.
BV-2 microglia cells (allotted from Pharmacology Division of Ajou University) were cultivated in DMEM (Dulbecco's Modified Eagle's Medium) supplemented with 5% fetal bovine serum (Invitrogen, Carlsbad, Calif., USA), sou/Ml penicillin (Invitrogen, Carlsbad, Calif., USA), and 50 μg/Ml streptomycin (Invitrogen, Carlsbad, Calif., USA) under the atmosphere condition with 5% CO2 and 95% air at 37° C. The medium was replaced once a day, the cells were plate-cultured in a density according to the scale of each experiment.
BV-2 cells were plate-cultured in 96-well plate at the density of 5×10^4, the cell viability was measured according to a conventional MTT analysis method and lactate dehydrogenase (LDH) analysis method. The MTT analysis depends on the metabolism ability of mitochondria of living cell, and reflexes intracellular redox states. The cultured cells were treated with MTT a solution (final concentration: 1 mg/Ml) for 4 hours. Deep blue formazan crystal generated in the original cells was dissolved in a lysis buffer, and then, the absorbance was detected at 595 nm with microplate reader. The LDH activity released from the culture medium was detected, which was evaluated as a cell death index. The culture medium was added to a reagent (test, Sigma Chemical Co, St. Louis, Mo., USA) containing sodium lactate, NADH and sodium pyruvate, and then, the absorbance reduction by NADH at 340 nm was measured. The result was calculated assuming that the LDH activity in homogenate solution of the non-treated control is 100%.
[…] For microscope analysis, BV-2 cells were used in 6-well plate at the density of 5×10^5 cells/well, for MTT analysis, BV-2 cells were used in 96-well plate at the density of 5×10^4 cells/well.
The obtained prevention effects of KHG25967 compound on toxicity induced by beta-amyloid in BV-2 cells were FIGS. 1A and 1b.
For MTT analysis, BV-2 cells were used on 96-well plate in the density of 5×10^4 cells/well. The quantitative analysis results (unit: %) for the cell viability obtained by MTT analysis were shown in Table 2, wherein the values are represented by the average of three experiments per each concentration.

[1] = compound 500 nM for 24 hours after 50 μM beta-amyloid for 2 hours, read-out: cell viability by MTT analysis

SMILES | melting point [°C] | viability at 0.5 µM (BV-2 cells; BV-2, read-out: cell viability by MTT analysis, compound 500 nM for 24 hours after 50 μM beta-amyloid for 2 hours) [%] | viability at 0.5 µM (BV-2 cells; [1]) [%]
O=C([O-])CCCNC(=O)Nc1nc2ccccc2s1.[K+] [KHG26221, potassium 4-(3-benzo[d]thiazole-2-ylureido)butanoate] | 241 | 44 | –
O=C(NCCO)Nc1nc2ccccc2s1 [KHG26279, 1-(benzo[d]thiazole-2-yl)-3-(2-hydroxyethyl)urea] | 223 | – | 36
Cn1c(NC(=O)NCC(=O)O)nc2ccccc21 [KHG26280, 2-(3-(1-methyl-1H-benzo[d]imidazole-2-yl)ureido)acetic acid] | 200 | – | 33
CCOC(=O)CNC(=S)Nc1nc2ccccc2n1C [KHG26303, ethyl 2-(3-(1-methyl-1H-benzo[d]imidazole-2-yl)thioureido)acetate] | 185 | – | 48
CCOC(=O)CNC(=S)Nc1nc2ccccc2s1 [KHG26304, ethyl 2-(3-benzo[d]thiazole-2-ylthioureido)acetate] | 204 | – | 41
CCOC(=O)CNC(=S)Nc1nc2ccc(C)cc2s1 [KHG26305, ethyl 2-(3-(6-methylbenzo[d]thiazole-2-yl)thioureido)acetate] | 290.8 | – | 37
CCOC(=O)CNC(=S)Nc1nc2c(C)cccc2s1 [KHG26306, ethyl 2-(3-(4-methylbenzo[d]thiazole-2-yl)thioureido)acetate] | 219 | – | 62
CCOC(=O)CNC(=S)Nc1nc2cc(C)c(C)cc2s1 [KHG26307, ethyl 2-(3-(5,6-dimethylbenzo[d]thiazole-2-yl)thioureido)acetate] | 255 | – | 48
CCOC(=O)CNC(=S)Nc1nc2ccc(OC)cc2s1 [KHG26308, ethyl 2-(3-(6-methoxybenzo[d]thiazole-2-yl)thioureido)acetate] | 324 | – | 44

The next lines start with results.

melting point [°C] | SMILES | viability at 0.5 µM (BV-2 cells; BV-2, read-out: cell viability by MTT analysis, compound 500 nM for 24 hours after 50 μM beta-amyloid for 2 hours) [%] | viability at 0.5 µM (BV-2 cells; [1]) [%]
183 | CCOC(=O)CNC(=S)Nc1nc2ccc(OCC)cc2s1 [KHG26309, ethyl 2-(3-(6-ethoxybenzo[d]thiazole-2-yl)thioureido)acetate] | – | 65
160 | CCOC(=O)CNC(=S)Nc1nc2ccc(F)cc2s1 [KHG26310, ethyl 2-(3-(6-fluorobenzo[d]thiazole-2-yl)thioureido)acetate] | – | 30
184 | CCOC(=O)CNC(=S)Nc1nc2ccc(Cl)cc2s1 [KHG26311, ethyl 2-(3-(6-chlorobenzo[d]thiazole-2-yl)thioureido)acetate] | – | 67
198 | CCOC(=O)CNC(=S)Nc1nc2c(Cl)cccc2s1 [KHG26312, ethyl 2-(3-(4-chlorobenzo[d]thiazole-2-yl)thioureido)acetate] | – | 55
200 | O=C(O)CNC(=S)Nc1nc2ccccc2s1 [KHG26316, 2-(3-benzo[d]thiazole-2-ylthioureido)acetic acid] | – | 57
172 | Cn1c(NC(=S)NCC(=O)O)nc2ccccc21 [KHG26334, 2-(3-(1-methyl-1H-benzo[d]imidazole-2-yl)thioureido)acetic acid] | – | 75
212 | Cc1cc2nc(NC(=S)NCC(=O)O)sc2cc1C [KHG26335, 2-(3-(5,6-dimethylbenzo[d]thiazole-2-yl)thioureido)acetic acid] | – | 81
200 | CCOc1ccc2nc(NC(=S)NCC(=O)O)sc2c1 [KHG26336, 2-(3-(6-ethoxybenzo[d]thiazole-2-yl)thioureido)acetic acid] | – | 67
214 | Cc1cccc2sc(NC(=S)NCC(=O)O)nc12 [KHG26340, 2-(3-(4-methylbenzo[d]thiazole-2-yl)thioureido)acetic acid] | – | 78
193 | O=C(O)CNC(=S)Nc1nc2ccc(Cl)cc2s1 [KHG26341, 2-(3-(6-chlorobenzo[d]thiazole-2-yl)thioureido)acetic acid] | – | 67
257 | COCCNC(=O)Nc1nc2ccccc2s1 [KHG26344, 1-(benzo[d]thiazole-2-yl)-3-(2-methoxyethyl)urea] | – | 58
249 | O=C(NCc1nn[nH]n1)Nc1nc2ccccc2s1 [KHG26345] | – | 63
